Measurements published in patent US11319316B2, “Compounds that induce degradation of anti-apoptotic Bcl-2 family proteins and the uses thereof” (BioVentures, LLC, priority 2016, dated 2022).
Like-named read-outs stand apart in the source and are kept apart here.

Key:
Format in all cases: cell-based
[1] = tested on: RS4; 11 cancer cells; experiment: Cancer cell viability by MTS, 72 h, RS4;11; conditions: RS4;11 cells
Experimental: (§1) RS4; 11 and NCI-H146 cancer cells were incubated with vehicle or increasing concentrations of compounds of Formula (I) and Formula (II). At 72 hours post-treatment cell viability was measured by MTS and EC50 was calculated as a percentage of control cells treated with vehicle. Table 1 depicts the EC50 values of compounds of Formula (I) and Formula (II) against RS4; 11 and NCI-H146.

[2] = biological target: T1, Bcl-xL (Homo sapiens, UniProt Q07817); experiment: Protein degradation assay (Western blot) in IR-SC WI38 cells; conditions: for Bcl-xL depletion in IR-SC WI38 cells: 1 μM (FIG. 4A)
T1 construct: endogenous in cells; host or cells: WI38 cells (normal NC-WI38 and ionizing-radiation-induced senescent IR-SC WI38)
T1 sequence (Q07817 whole entry): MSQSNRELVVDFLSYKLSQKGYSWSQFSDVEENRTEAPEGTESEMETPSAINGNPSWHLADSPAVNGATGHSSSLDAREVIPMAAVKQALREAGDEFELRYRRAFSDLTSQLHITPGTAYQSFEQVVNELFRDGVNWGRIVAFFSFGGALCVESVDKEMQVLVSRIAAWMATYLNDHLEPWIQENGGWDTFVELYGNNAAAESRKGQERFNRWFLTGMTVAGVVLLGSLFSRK
Experimental: IR-SC WI38 cells were incubated with vehicle or increasing concentrations of XZ-14439 for 18 hours at increasing […] (FIG. 3A) and at a fixed concentration of XZ-14439 for increasing times (FIG. […]). The cells were digested with 0.25% trypsin and 1 mM EDTA, and harvested in RIPA lysis buffer with 1% Phosphatase Inhibitor Cocktail 3 and 1% Protease Inhibitor Cocktail. An equal amount of protein (15-30 μg/lane) from each cell extract was resolved on a 12% SDS-PAGE gel. Proteins were blotted onto a NOVEX PVDF membrane by electrophoresis. The membranes were blocked with TBS-T blocking buffer (5% nonfat milk in 25 mM Tris-HCL, pH 7.4; 3 mM KCl; […] NaCl; and 0.05% Tween) and probed with primary antibodies (at a predetermined optimal concentration) overnight at 4° C. or for 1 hour at room temperature. After extensive washing with TBS-T, the membranes were incubated with an appropriate peroxidase-conjugated secondary antibody for 1 hour at room temperature. After three washes with TBS-T, the proteins of interest were detected with ECL Western Blotting Detection Reagents and recorded with autoradiography (Pierce Biotech, Rockford, Ill., USA). The primary antibody Bcl-x (#2762), Bcl-2 antibody (#2872S) and β-actin (13E5, #4970) were purchased from Cell Signaling.
(§2) IR-SC WI38 (FIG. 4A) and RS4; 11 (FIG. 4B) cells were incubated with vehicle or increasing concentrations of compounds of Formula (I) or Formula (II) for 6 or 16 hours, at 1 μM (FIG. 4A) and 100 nm (FIG. 4B), respectively. The cells were harvested in RIPA lysis buffer with 1% Phosphatase Inhibitor Cocktail 3 and 1% Protease Inhibitor Cocktail. An equal amount of protein (15-30 μg/lane) from each cell extract was resolved on a 12% SDS-PAGE gel. Proteins were blotted onto a NOVEX PVDF membrane by electrophoresis. The membranes were blocked with TBS-T blocking buffer (5% nonfat milk in 25 mM Tris-HCL, pH 7.4; 3 mM KCl; 140 mM NaCl; and 0.05% Tween) and probed with primary antibodies (at a predetermined optimal concentration) overnight at 4° C. or for 1 hour at room temperature. After extensive washing with TBS-T, the membranes were incubated with an appropriate peroxidase-conjugated secondary antibody (Jackson ImmunoResearch Europe, Suffolk, UK) for 1 hour at room temperature. After three washes with TBS-T, the proteins of interest were detected with ECL Western Blotting Detection Reagents and recorded with autoradiography. The primary antibody Bcl-xl (#2762), Bcl-2 antibody (#2872S), Bcl-w (#2724S), Mcl-1 (#5453s) and β-actin (13E5, #4970) were purchased from Cell Signaling.

[3] = biological target: T1, Bcl-xL; experiment: Protein degradation assay (Western blot) in RS4;11 cells; parameters: dose or concentration left out as unconfirmed
Experimental: as §2, with “IR-SC WI38 (FIG. 4A) and RS4; 11 (FIG. 4B) cells were incubated with vehicle or increasing concentrations of compounds of Formula (I) or Formula (II) for 6 or 16 hours, at 1 μM (FIG. 4A) and 100 nm (FIG. 4B), respectively.” left out

[4] = tested on: IR-induced senescent WI38 cells (IR-SC); experiment: Viability of IR-induced senescent WI38 cells (IR-SC), 72 h, PI staining and flow cytometry; conditions: for EC50: IR-induced senescent WI38 cells, 72 hours, viable (PI-) cells as percentage of vehicle control; for Ratio NSC/SC: ratio of WI38 EC50 in NSC to EC50 in IR-SC
Experimental: (§3) Normal WI38 (NSC) and IR-induced senescent WI38 cells (IR-SC) were incubated with vehicle or increasing concentrations of compounds of Formula (I) or Formula (II) for 72 hours. The cells were digested with 0.25% trypsin and 1 mM EDTA, and harvested in PBS containing 2% FBS. After incubation with propidium iodide (PI, 100 ng/ml) in PBS at room temperature for 1 minute, cells were centrifuged at 1,200 rpm for 6 minutes to remove PI and then resuspended in PBS containing 2% FBS for analysis using a flow cytometer. Viable cells (PI-cells) were analyzed by flow cytometry at a constant flow rate to count the number of cells and calculated as a percentage of control cells treated with vehicle. Table 1 depicts the EC50 values of the compounds of Formula (I) and compounds of Formula (II) against normal WI38 and IR-induced senescent WI38.

[5] = tested on: Normal WI38 (NSC); experiment: Viability of normal WI38 cells (NSC), 72 h, PI staining and flow cytometry
Experimental: as §3

[6] = tested on: NCI-H146 cancer cells; experiment: Cancer cell viability by MTS, 72 h, NCI-H146
Experimental: as §1

[7] = viable (PI-) cells as percentage of vehicle control
[8] = Homo sapiens, WI-38, viable (PI-) cells as percentage of vehicle control

| Compound | EC50 [1] [nM] | Bcl-xL depletion in IR-SC WI38 cells [2] | Bcl-xL depletion in RS4; 11 cells [3] | EC50 [4] [nM] | Ratio NSC/SC [4] | EC50 [5, 7] [nM] | EC50 [6] [nM] | EC50 ([1]; Homo sapiens) [nM] | Bcl-xL depletion in IR-SC WI38 cells, dose and time dependence ([2]; increasing concentrations for 18 hours (FIG. 3A), fixed concentration for increasing times (FIG. 3B)) | EC50 ([4]; Homo sapiens, WI-38) [nM] | EC50 [5, 8] [nM] | EC50 ([6]; Homo sapiens) [nM] |
| --- | --- | --- | --- | --- | --- | --- | --- | --- | --- | --- | --- | --- |
| CC1(C)CCC(c2ccc(Cl)cc2)=C(CN2CCN(c3ccc(C(=O)NS(=O)(=O)c4ccc(N[C@H](CCN5CCN(C(=O)CCCn6cc(COCCOCCNc7cccc8c7C(=O)N(C7CCC(=O)NC7=O)C8=O)nn6)CC5)CSc5ccccc5)c(S(=O)(=O)C(F)(F)F)c4)cc3)CC2)C1 (some centres unmarked) [PZ-15227] | 114 | deplete Bcl-xL | deplete Bcl-xL | 108 | >92 | > 10000 | 68.9 | – | – | – | – | – |
| CC1(C)CCC(c2ccc(Cl)cc2)=C(CN2CCN(c3ccc(C(=O)NS(=O)(=O)c4ccc(N[C@H](CCN5CCN(C(=O)CCCn6cc(COCCOCCOCCNc7cccc8c7C(=O)N(C7CCC(=O)NC7=O)C8=O)nn6)CC5)CSc5ccccc5)c(S(=O)(=O)C(F)(F)F)c4)cc3)CC2)C1 (stereo partly drawn) [XZ-14439, 4-(4-((4′-chloro-4,4-dimethyl-3,4,5,6-tetrahydro-[1,1′-biphenyl]-2-yl)methyl)piperazin-1-yl)-N-((4-(((2R)-4-(4-(4-(4-((2-(2-(2-((2-(2,6-dioxopiperidin-1,3-yl)-1,3-dioxoisoindolin-4-yl)amino)ethoxy)ethoxy)ethoxy)methyl)-1H-1,2,3-triazol-1-yl)butanoyl)piperazin-1-yl)-1-(phenylthio)butan-2-yl)amino)-3-((trifluoromethyl)sulfonyl)phenyl)sulfonyl)benzamide] | – | – | – | – | >20.88 | – | – | 84.4 | depletes Bcl-xL in IR-SC WI38 cells in both a dose dependent (FIG. 3A) and time dependent (FIG. 3B) manner | 870 | > 20000 | 69.5 |
| Cc1ncsc1-c1ccc(CNC(=O)[C@@H]2C[C@@H](O)CN2C(=O)[C@@H](NC(=O)CCC(=O)NCCOCCOCCNC(=O)N2CCN(CC[C@H](CSc3ccccc3)Nc3ccc(S(=O)(=O)NC(=O)c4ccc(N5CCN(CC6=C(c7ccc(Cl)cc7)CCC(C)(C)C6)CC5)cc4)cc3S(=O)(=O)C(F)(F)F)CC2)C(C)(C)C)cc1 [XZ-14529] | – | – | – | – | – | – | – | 823 | – | > 10000 | > 10000 | > 2000 |
| CC1(C)CCC(c2ccc(Cl)cc2)=C(CN2CCN(c3ccc(C(=O)NS(=O)(=O)c4ccc(N[C@H](CCN5CCN(C(=O)COCCOCCOCCOCCNc6cccc7c6C(=O)N(C6CCC(=O)NC6=O)C7=O)CC5)CSc5ccccc5)c(S(=O)(=O)C(F)(F)F)c4)cc3)CC2)C1 (some centres unmarked) [XZ-14540] | – | – | – | – | 8.86 | – | – | 82.4 | – | 1130 | > 10000 | 76.2 |
| CC1(C)CCC(c2ccc(Cl)cc2)=C(CN2CCN(c3ccc(C(=O)NS(=O)(=O)c4ccc(N[C@H](CCN5CCN(CCOCCOCCNc6cccc7c6C(=O)N(C6CCC(=O)NC6=O)C7=O)CC5)CSc5ccccc5)c(S(=O)(=O)C(F)(F)F)c4)cc3)CC2)C1 (stereo partly drawn) [XZ-15405, 4-(4-((4′-chloro-4,4-dimethyl-3,4,5,6-tetrahydro-[1,1′-biphenyl]-2-yl)methyl)piperazin-1-yl)-N-((4-(((2R)-4-(4-(2-(2-(2-((2-(2,6-dioxopiperidin-3-yl)-1,3-dioxoisoindolin-4-yl)amino)ethoxy)ethoxy)ethyl)piperazin-1-yl)-1-(phenylthio)butan-2-yl)amino)-3-((trifluoromethyl)sulfonyl)phenyl)sulfonyl)benzamide] | – | deplete Bcl-xL | deplete Bcl-xL | – | >65.97 | – | – | 24.8 | – | 152 | > 10000 | – |
| CC1(C)CCC(c2ccc(Cl)cc2)=C(CN2CCN(c3ccc(C(=O)NS(=O)(=O)c4ccc(N[C@H](CCN5CCN(CCOCCNc6cccc7c6C(=O)N(C6CCC(=O)NC6=O)C7=O)CC5)CSc5ccccc5)c(S(=O)(=O)C(F)(F)F)c4)cc3)CC2)C1 (stereo partly drawn) [XZ-15416, 4-(4-((4′-chloro-4,4-dimethyl-3,4,5,6-tetrahydro-[1,1′-biphenyl]-2-yl)methyl)piperazin-1-yl)-N-((4-(((2R)-4-(4-(2-(2-((2-(2,6-dioxopiperidin-3-yl)-1,3-dioxoisoindolin-4-yl)amino)ethoxy)ethyl)piperazin-1-yl)-1-(phenylthio)butan-2-yl)amino)-3-((trifluoromethyl)sulfonyl)phenyl)sulfonyl)benzamide] | – | deplete Bcl-xL | deplete Bcl-xL | – | >64.02 | – | – | 30.7 | – | < 156 | > 10000 | > 10 |
| CC1(C)CCC(c2ccc(Cl)cc2)=C(CN2CCN(c3ccc(C(=O)NS(=O)(=O)c4ccc(N[C@H](CCN5CCN(CCOCCOCCOCCNc6cccc7c6C(=O)N(C6CCC(=O)NC6=O)C7=O)CC5)CSc5ccccc5)c(S(=O)(=O)C(F)(F)F)c4)cc3)CC2)C1 (stereo partly drawn) [XZ-15418, 4-(4-((4′-chloro-4,4-dimethyl-3,4,5,6-tetrahydro-[1,1′-biphenyl]-2-yl)methy)piperazin-1-yl)-N-((4-(((2R)-4-(4-(2-(2-(2-(2-((2-(2,6-dioxopiperidin-3-yl)-1,3-dioxoisoindolin-4-yl)amino)ethoxy)ethoxy)ethoxy)ethyl)piperazin-1-yl)-1-(phenylthio)butan-2-yl)amino)-3-((trifluoromethyl)sulfonyl)phenyl)sulfonyl)benzamide] | 12.3 | deplete Bcl-xL | deplete Bcl-xL | 172 | >58.06 | > 10000 | – | – | – | – | – | – |
| CC1(C)CCC(c2ccc(Cl)cc2)=C(CN2CCN(c3ccc(C(=O)NS(=O)(=O)c4ccc(N[C@H](CCN5CCN(C(=O)Cn6cc(COCCOCCNc7cccc8c7C(=O)N(C7CCC(=O)NC7=O)C8=O)nn6)CC5)CSc5ccccc5)c(S(=O)(=O)C(F)(F)F)c4)cc3)CC2)C1 (some centres unmarked) [XZ-15421] | – | deplete Bcl-xL | deplete Bcl-xL | – | >64.02 | – | – | 72.9 | – | < 156 | > 10000 | – |
